From EP2948433B1, “ATGLISTATIN AS LIPASE INHIBITOR” (Technische Universität Graz, priority 2013, dated 2014)

What was measured:
[1] = Tissue TG content after oral gavage in fasted mice; format: in vivo, C57BI6 mice
Procedure: Animals. Mice (C57BI/6J) were maintained on a regular light-dark cycle (14 hours light, 10 hours dark) and kept on a standard laboratory chow diet (4.5% wt/wt fat, Sniff GMBH Germany). Maintenance, handling, and tissue collection from mice has been approved by the Austrian Federal Ministry of Science and Research Education and by the ethics committee of the University of Graz. Atglistatin was orally administrated by gavage of 200 µl olive oil containing Atglistatin.
Determination of tissue TG content. For tissue collection mice were euthanized by cervical dislocation. Subsequently, tissues were excised and snap frozen. After homogenisation in buffer A without DTT, TG was measured using TG reagent (Thermo Electron Corp., Victoria, Australia).
Table 1. Inhibition of lipolysis in vivo. C57BI6 mice were fasted overnight and received an oral gavage containing 200 µmol/kg Atglistatin dissolved in olive oil, or olive oil as control. After 8 h blood was taken retroorbitally and mice were sacrificed. (A) Plasma parameters were measured using commercial kits. (B) Tissue triglyceride (TG) and protein levels were determined in whole tissue lysates and are presented as TG (nmol) per protein (mg). Data are presented as mean + S.D. (*, p < 0.05 **, p < 0.01; ***, p < 0.001). n = 7

[2] = system: AML-12 mouse hepatocytes; test: MTT-based in vitro viability (toxicity) test; format: cell-based; conditions: at concentrations ≥100 µM
Procedure: Toxicity test for Atglistatin in AML-12 mouse hepatocytes. For MTT-based in vitro viability assays, cells were seeded at an initial density of 1x10^4 cells per well in 96-well plates and cultured under standard conditions for twenty-four hours. The next day, cells were pretreated with different concentrations of Atglistatin dissolved in DMSO or Cisplatin dissolved in dimethylformamide (DMF) (Sigma-Aldrich) as positive control for two hours. Medium was replaced by an identical fresh medium and incubated again for the indicated timepoints. Thereafter cells were incubated for 3 hours with 100 µl Thiazolyl Blue Tetrazolium Bromide (MTT). The resulting violet formazan crystals were dissolved by adding 100 µl of MTT Solubilization Solution (0.1% NP-40, 4 mM HCl and anhydrous isopropanol). After complete dissolution of the formazan product, absorbance was measured at 595 nm and 690 nm. The values obtained at 690 nm were subtracted from the 595 nm measurements.

[3] = system: 3T3-L1 adipocytes; test: Forskolin-stimulated lipolysis of differentiated 3T3-L1 adipocytes; format: cell-based, mouse; conditions: 10 µM forskolin-stimulated, dose dependent (0-50 µM)
Procedure: • Figure 1. Structure of compounds 1 to 3 (reference) and compound 4 (atglistatin) and effect on ATGL activity. For determination of lipase activity, lysates of E. coli overexpressing recombinant strep-tagged ATGL and CGI-58 were incubated with a substrate containing radiolabeled [9,10-3H(N)]-triolein. Subsequently, FA were extracted and quantified by liquid scintillation counting. Lysates of cells expressing empty vector were set as blank. Inhibitors were solubilized in DMSO and added at the indicated concentrations. DMSO alone was used as negative control. (A) Structure and IC50 values of compounds 1-4. (B) Dose-dependent inhibition of ATGL in the presence of compound 3 and 4. […] (C) Lineweaver-Burk plots for kinetic analysis of ATGL inhibition. Experiments were performed at varying concentrations of substrate (0.05 - 3 mM) in presence and absence of compound 4 (Atglistatin). […] Lipase activity of ATGL, HSL, lipoprotein lipase, and pancreatic lipase was determined using triolein as substrate. MGL activity was detected in the presence of rac-(1,3)-monooleoylglycerol as substrate. […] The release of FA (A) and glycerol (B) in the media was determined using commercial kits. […] At the indicated timepoints blood was taken retroorbitally and plasma parameters were measured using commercial kits. […] 8 h after gavage blood was taken retroorbitally and plasma parameters were measured using commercial kits. […]

In the case of CN(C)C(=O)Nc1cccc(-c2ccc(N(C)C)cc2)c1 [Atglistatin, atglistatin], the “Tissue triglyceride (TG), skeletal muscle” value ([1]; 200 µmol/kg oral gavage, after 8 h, mean ± S.D., n = 7) is reported as 99 ± 13 nmol TG /mg protein, the “accumulation of TG in cardiac muscle and other tissues” value ([1]; mouse, in vivo) is reported as “did not promote the accumulation of TG” and the “cell viability (cytotoxicity assays)” value [2] is reported as “only a very moderate decrease in cell viability”. For the same compound, the “inhibition of FA release” value [3] was “almost complete inhibition” and the “inhibition of glycerol release” value [3] was about 90%.
